The values that follow come from US6083932A, “Pharmaceutical compositions derived from ginseng and methods of treatment using same” (CV Technologies Inc., priority 1998, dated 2000).

One assay has as its target T1, monoamine oxidase-A (Rattus norvegicus, UniProt P21396).
T1 construct: homogenates of rat brain; from tissue; host or cells: rat brain homogenate
T1 sequence (P21396 1-526): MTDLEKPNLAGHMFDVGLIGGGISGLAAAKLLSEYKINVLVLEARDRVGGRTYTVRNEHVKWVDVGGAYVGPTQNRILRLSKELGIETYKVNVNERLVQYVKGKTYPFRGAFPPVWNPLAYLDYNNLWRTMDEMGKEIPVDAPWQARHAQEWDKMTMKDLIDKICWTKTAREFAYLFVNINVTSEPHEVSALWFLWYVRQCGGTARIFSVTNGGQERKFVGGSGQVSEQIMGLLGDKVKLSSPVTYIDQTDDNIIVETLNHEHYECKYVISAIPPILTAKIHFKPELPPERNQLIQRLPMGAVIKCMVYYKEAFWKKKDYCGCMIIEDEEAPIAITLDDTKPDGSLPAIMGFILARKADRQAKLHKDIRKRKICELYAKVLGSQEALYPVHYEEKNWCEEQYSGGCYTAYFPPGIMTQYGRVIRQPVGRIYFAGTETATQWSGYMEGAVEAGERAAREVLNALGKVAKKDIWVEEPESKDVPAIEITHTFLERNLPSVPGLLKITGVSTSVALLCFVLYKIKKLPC
Put plainly: in vitro monoamine oxidase-A inhibiting activity (radiochemical, 5-hydroxytryptamine substrate). The format is biochemical. The settings on record: read-out: % MAO-A Inhibition; for inhibition at 1000 µg/mL: 1.0 mg/ml; for inhibition at 10000 µg/mL: 10 mg/ml. The procedure:
(§1) Example 1 is a study of the effects of several extracts of HT1001, PQ4, PQ5, PQ6 and pure ginsenosides, on monoamine oxidase A (MAO A) and monoamine oxidase B (MAO B) activity in vitro.
(§2) HT-1001, related extracts and pure ginsenosides were evaluated for in vitro monoamine oxidase-A and monoamine oxidase-B inhibiting activity using the radiochemical procedure of Lyles and Callingham, Biochem. Pharmacol. 31: 1417-1424 (1982), employing either radiolabelled 5-hydroxytryptamine or β-phenylethylamine as substrates for monoamine oxidase-A (MAO-A) or monoamine oxidase-B (MAO-B) respectively. Various concentrations of the compounds of interest were incubated in appropriately diluted homogenates of rat brain in a 0.2 M potassium phosphate buffer. After a 15 minute preincubation period the reaction was initiated by the addition of substrate. Incubations proceded at 37° C. for 10 minutes. Incubation was terminated by the addition of acid and the radiolabelled products (5-hydroxyindoleacetic acid, 5-hydroxyindoleacetaldehyde or phenylacetic acid, phenylacetaldehyde) were extracted and quantified by liquid scintillation counting procedures. Incubations were done in triplicate and incubations including pheneizine a known MAO inhibitor were included as controls and for comparison. The percent inhibition of monoamine oxidase-A or monoamine oxidase-B activity compared to controls containing no experimental material was calculated.

In the next assay the target is T2, monoamine oxidase-B (Rattus norvegicus, UniProt P19643).
T2 construct: homogenates of rat brain; from tissue; host or cells: rat brain homogenate
T2 sequence (P19643 1-520): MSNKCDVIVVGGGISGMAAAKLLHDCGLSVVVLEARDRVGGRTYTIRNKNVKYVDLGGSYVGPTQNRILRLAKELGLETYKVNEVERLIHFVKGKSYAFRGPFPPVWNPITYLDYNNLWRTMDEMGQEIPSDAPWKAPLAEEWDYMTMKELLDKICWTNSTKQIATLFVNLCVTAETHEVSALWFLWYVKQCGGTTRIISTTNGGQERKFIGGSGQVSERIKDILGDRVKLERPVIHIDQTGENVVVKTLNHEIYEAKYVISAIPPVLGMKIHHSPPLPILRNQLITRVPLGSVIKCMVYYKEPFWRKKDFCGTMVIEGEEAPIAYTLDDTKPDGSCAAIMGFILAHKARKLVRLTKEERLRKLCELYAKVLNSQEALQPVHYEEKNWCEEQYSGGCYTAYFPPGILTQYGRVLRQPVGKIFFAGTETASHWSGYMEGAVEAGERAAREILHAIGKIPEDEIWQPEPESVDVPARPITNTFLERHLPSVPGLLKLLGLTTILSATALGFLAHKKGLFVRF
Put plainly: in vitro monoamine oxidase-B inhibiting activity (radiochemical, β-phenylethylamine substrate). The format is biochemical. The settings on record: read-out: % MAO-B Inhibition; for inhibition at 1000 µg/mL: 1.0 mg/ml; for inhibition at 10000 µg/mL: 10 mg/ml. The procedure: as §1, §2

The test system of another assay is PC12 cells. Put plainly: neurite outgrowth in PC12 cells. The following applies: seven days after treatment. The format is cell-based. The procedure:
A study of the neurotrophic effects of HT1001 and some pure ginsenosides was conducted. A new mechanism of action for HT1001 was shown, which is the stimulation of neurite outgrowth in a PC12 cell line. […] The beneficial effects (prevention/treatment) of HT-1001 may apply to degenerative diseases such as senile dementia, Parkinson's disease, Alzheimer's disease, multi-infarct dementia, etc. Alzheimer's disease (AD) is associated with degeneration of cholinergic nerve tracts including projections from the basal forebrain to the cortex and hippocampus. The PC12 (pheochromocytoma) cell line is one of the models for the study of the development of these nerve tracts. The cell line is phenotypically a chromaffin cell line, but can be induced to express adrenergic and cholinergic markers as well. This model has the advantages that (1) it is an immortalized cell line, (2) it is sensitive to, but not dependent upon, NGF for survival, and (3) it shares many properties in common with the central cholinergic neurons of the basal forebrain. It has been noted that PC12 cells are not sensitive to all of the trophic factors that central cholinergic neurons respond to, whereas central cholinergic neurons respond to all trophic factors that PC12 cells respond to. […] The cellular responses to Nerve Growth Factor (NGF) and samples were determined by counting the number of cells containing processes in PC12 cells. […] The cells and neurites were counted as follows: The cells with circular or global shape and no neurite outgrowth were scored as 0 (S0). […] Cells with more than two small neurites on the cell bodies were scored as S2. Cells with one or two neurites with a length of at least two times diameter as their body were scored as S3. Cells with more than two long neurites were scored as S4. The neurite index was calculated as below: Neurite index (In)=total neurite Score (ΣS)/total cell number (.[…] is the cell number of every cell field. The test samples included: […]

As to `CC(C)=CCC[C@](C)(O[C@@H]1O[C@H](CO[C@@H]2O[C@H](CO)[C@@H](O)[C@H](O)[C@H]2O)[C@@H](O)[C@H](O)[C@H]1O)[C@H]1CC[C@]2(C)[C@@H]1[C@H](O)C[C@@H]1[C@@]3(C)CC[C@H](O[C@@H]4O[C@H](CO)[C@@H](O)[C@H](O)[C@H]4O[C@@H]4O[C@H](CO)[C@@H](O)[C@H](O)[C@H]4O)C(C)(C)[C@@H]3CC[C@]12C` [Rb1, ginsenoside Rb1], at monoamine oxidase-A, the inhibition at 1000 µg/mL was -6.9% and the inhibition at 10000 µg/mL was determined as 7.1%. At monoamine oxidase-B, the inhibition at 1000 µg/mL was -11.6% and the inhibition at 10000 µg/mL is -7.8%. The “neurite outgrowth (FIG. 31)” value in the assay with PC12 cells is “significantly increased neurite outgrowth”.

With `CC(C)=CCC[C@](C)(O[C@@H]1O[C@H](CO)[C@@H](O)[C@H](O)[C@H]1O)[C@H]1CC[C@]2(C)[C@@H]1[C@H](O)C[C@@H]1[C@@]3(C)CC[C@H](O)C(C)(C)[C@@H]3[C@@H](O[C@@H]3O[C@H](CO)[C@@H](O)[C@H](O)[C@H]3O)C[C@]12C` [Rg1, ginsenoside Rg1], at monoamine oxidase-A, the inhibition at 1000 µg/mL was -10.8% and the inhibition at 10000 µg/mL was 5.1%. On monoamine oxidase-B, the inhibition at 1000 µg/mL was -7.2% and the inhibition at 10000 µg/mL was -5%. Besides, the “neurite outgrowth (FIG. 31)” value in the assay on PC12 cells was “significantly increased neurite outgrowth”.
